This is an account of results in patent EP4741386A1 (Jiangsu Yahong Meditech Co., Ltd., priority 2023, dated 2025).

In one assay the test system is MDA-MB-436. Briefly: CTG experiment for cell viability (CellTiter-Glo, 96-well plate, 7 days). In kind it is cell-based. The settings on record: MDA-MB-436 cells, 7 days culture with compound. In outline: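 Viability was read by CellTiter-Glo luminescence after 10 min at room temperature, once the compound-containing medium had been replaced with PBS. Before that, MDA-MB-436 cells grown in DMEM were exposed to compounds for 7 days at 37°C. Curve fitting followed the enzyme assay method.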

For assay [1], the target named is T1, Recombinant human His6-USP1/His6-UAF1 complex protein (Homo sapiens, UniProt O94782).
T1 construct: His6; purchased R&D E-568-050
Briefly: In vitro inhibitory activity against USP1 (Ubiquitin Rhodamine 110 fluorescence detection, 384-well plate). It is filed as biochemical. The settings on record: Ub-Rho substrate, 1 hour pre-incubation, read after 30 minutes. Summed up:
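Compounds, kept as 50 mM DMSO stocks, were acoustically dispensed into modified Tris buffer. Inhibition of recombinant human His6-USP1/His6-UAF1 was read by fluorescence from cleavage of Ub-Rho110 substrate.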

[2] abbreviates: Homo sapiens, MDA-MB-436, 168 h.

What is called IC50 is the concentration at which inhibition is half-maximal.

T1 sequence (O94782 whole entry): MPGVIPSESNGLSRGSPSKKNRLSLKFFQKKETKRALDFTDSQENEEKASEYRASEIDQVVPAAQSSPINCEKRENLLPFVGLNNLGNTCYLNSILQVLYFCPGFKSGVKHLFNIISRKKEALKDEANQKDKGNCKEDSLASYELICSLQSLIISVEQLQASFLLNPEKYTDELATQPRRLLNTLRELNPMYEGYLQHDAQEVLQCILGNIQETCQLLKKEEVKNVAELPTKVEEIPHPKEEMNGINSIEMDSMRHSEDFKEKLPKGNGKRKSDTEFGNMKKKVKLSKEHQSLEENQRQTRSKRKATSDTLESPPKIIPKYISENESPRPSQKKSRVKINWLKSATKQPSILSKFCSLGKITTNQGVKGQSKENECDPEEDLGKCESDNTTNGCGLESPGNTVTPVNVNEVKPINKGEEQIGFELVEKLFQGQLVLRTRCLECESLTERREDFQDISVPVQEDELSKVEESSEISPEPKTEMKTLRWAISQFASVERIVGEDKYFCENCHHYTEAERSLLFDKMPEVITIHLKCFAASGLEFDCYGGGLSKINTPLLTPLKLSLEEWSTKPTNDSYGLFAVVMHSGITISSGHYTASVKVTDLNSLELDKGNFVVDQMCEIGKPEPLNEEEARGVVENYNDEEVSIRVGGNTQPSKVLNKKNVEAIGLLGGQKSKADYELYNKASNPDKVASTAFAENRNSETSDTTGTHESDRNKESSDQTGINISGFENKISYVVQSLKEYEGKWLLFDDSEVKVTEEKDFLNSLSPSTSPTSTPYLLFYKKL
T1 sequence (Q8TAF3 whole entry partner): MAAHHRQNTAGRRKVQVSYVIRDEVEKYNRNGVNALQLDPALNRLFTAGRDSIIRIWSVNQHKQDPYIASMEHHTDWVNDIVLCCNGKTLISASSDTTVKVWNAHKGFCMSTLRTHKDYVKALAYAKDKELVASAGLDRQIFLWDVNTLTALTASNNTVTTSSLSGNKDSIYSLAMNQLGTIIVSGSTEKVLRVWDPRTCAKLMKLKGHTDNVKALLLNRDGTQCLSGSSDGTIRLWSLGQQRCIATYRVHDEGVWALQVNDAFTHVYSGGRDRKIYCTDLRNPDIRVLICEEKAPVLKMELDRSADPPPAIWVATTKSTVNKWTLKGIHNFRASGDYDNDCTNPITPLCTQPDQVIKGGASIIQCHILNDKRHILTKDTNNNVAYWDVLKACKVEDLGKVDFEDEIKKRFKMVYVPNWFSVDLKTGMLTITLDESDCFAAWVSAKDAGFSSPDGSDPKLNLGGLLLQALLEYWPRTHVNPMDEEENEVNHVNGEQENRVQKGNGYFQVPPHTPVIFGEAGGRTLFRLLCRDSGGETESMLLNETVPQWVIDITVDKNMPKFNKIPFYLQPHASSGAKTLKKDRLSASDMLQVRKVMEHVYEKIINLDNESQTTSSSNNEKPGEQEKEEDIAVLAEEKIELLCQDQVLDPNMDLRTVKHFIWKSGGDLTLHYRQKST

As to `[2H]C([2H])([2H])Oc1ncnc(C2CC2)c1-c1ncc(OC)c(N(C[C@H]2CC[C@H](c3nc(C(F)(F)F)cn3C)CC2)C([2H])([2H])[2H])n1` [Example S24, 4'-Cyclopropyl-5-methoxy-6'-(methoxy-D3)-N-(methyl-D3)-N(((1R,4R)-4-(1-methyl-4-(trifluoromethyl)-1H-imidazol-2-yl)cyclohexyl)methyl)-[2,5'-bipyrimidin]-4-amine], the values for the IC50 (in the assay with MDA-MB-436 (setting [2]); in assay [1]) were 4.6 nM and 5.7 nM, respectively.

With `COc1cnc(-c2c(OC)ncnc2C2CC2)nc1N(C)C[C@H]1CC[C@H](c2nc(C(F)(F)F)cn2C(C)C)CC1` [Example S26, 4'-Cyclopropyl-N-(((1R,4R)-4-(1-isopropyl-4-(trifluoromethyl)-1H-imidazol-2-yl)cyclohexyl)methyl)-5,6'-dimethoxy-N-methyl-[2,5'-bipyrimidin]-4-amine], the results for the 50% inhibitory concentration (IC50) (with MDA-MB-436 (setting [2]); in assay [1]) were 14.3 nM and 13 nM, respectively.

Turning to `COc1cnc(-c2c(OC)ncnc2OC)nc1NC[C@H]1CC[C@H](c2nc(C(F)(F)F)cn2C2CC2)CC1` [Example S29, N-(((1R,4R)-4-(1-cyclopropyl-4-(trifluoromethyl)-1H-imidazol-2-yl)cyclohexyl)methyl)-4',5,6'-trimethoxy-[2,5'-bipyrimidin]-4-amine], the IC50 in the assay on MDA-MB-436 (setting [2]) turned out to be 338 nM; in assay [1], 15 nM.

In the case of `COc1cnc(-c2c(OC)ncnc2OC)nc1N(C)C[C@H]1CC[C@H](c2nc(C(F)(F)F)cn2C2CC2)CC1` [Example S30, N-(((1R,4R)-4-(1-cyclopropyl-4-(trifluoromethyl)-1H-imidazol-2-yl)cyclohexyl)methyl)-4',5,6'-trimethoxy-N-methyl-[2,5'-bipyrimidin]-4-amine], the IC50 turned out to be 31.9 nM in the assay with MDA-MB-436 (setting [2]) and 12 nM in assay [1].

`COc1cnc(-c2c(C)ncnc2OC2CC2)nc1N(C)C[C@H]1CC[C@H](c2nc(C(F)(F)F)cn2C)CC1` [Example S32]: the IC50 turned out to be 235 nM in the assay with MDA-MB-436 (setting [2]) and 106 nM in assay [1].

For `COc1cnc(-c2c(OC)ncnc2C2CC2F)nc1N(C)C[C@H]1CC[C@H](c2nc(C(F)(F)F)cn2C)CC1` (stereo partly drawn) [Example S35], the half-inhibitory concentration (IC50) stood at 3.5 nM with MDA-MB-436 (setting [2]) and 6.8 nM in assay [1].

As to `COc1cnc(-c2c(OC)ncnc2C(F)(F)F)nc1N(C)C[C@H]1CC[C@H](c2nc(C(F)(F)F)cn2C)CC1` [Example S36, 4',5-Dimethoxy-N-methyl-N-(((1R,4R)-4-(1-methyl-4-(trifluoromethyl)-1H-imidazol-2-yl)cyclohexyl)methyl)-6'-(trifluoromethyl)-[2,5'-bipyrimidin]-4-amine], the IC50 in the assay on MDA-MB-436 (setting [2]) amounted to 1.8 nM; in assay [1] it was 7.1 nM.

With `COc1cnc(-c2c(OC)ncnc2C(F)(F)F)nc1N(C)C[C@H]1CC[C@H](c2nc(C(F)(F)F)cn2C(C)C)CC1` [Example S37, N-(((1R,4R)-4-(1-isopropyl-4-(trifluoromethyl)-1H-imidazol-2-yl)cyclohexyl)methyl)-4',5-dimethoxy-N-methyl-6'-(trifluoromethyl)-[2,5'-bipyrimidin]-4-amine], the IC50 worked out at 32.6 nM in the assay with MDA-MB-436 (setting [2]) and 12 nM in assay [1].

On to `COc1cnc(-c2cccnc2C(C)C)nc1NCC12C3C4C1C1C2C3C41c1nc(C(F)(F)F)cn1C` (stereo not drawn) [Example S42, 2-(2-isopropylpyridin-3-yl)-5-methoxy-N-((4-(1-methyl-4-(trifluoromethyl)-1H-imidazol-2-yl)cuban-1-yl)methyl)pyrimidin-4-amine], for which the half-inhibitory concentration (IC50) in the assay with MDA-MB-436 (setting [2]) came out at 3.5 nM; in assay [1], 1.2 nM.

As to `COc1cnc(-c2c(OC)ncnc2C2CC2)nc1N(C#N)CC12CCC(c3nc(C(F)(F)F)cn3C)(CC1)CC2` [Example S43], the IC50 amounted to 12.1 nM in the assay on MDA-MB-436 (setting [2]) and 6.9 nM in assay [1].

Consider `COc1cnc(-c2c(OC)ncnc2C2CC2(F)F)nc1N(C)CC1CCC(c2nc(C(F)(F)F)cn2C)CC1` [Example S49, 4'-(2,2-difluorocyclopropyl)-5,6'-dimethoxy-N-methyl-N-((1R,4R)-4-(1-methyl-4-(trifluoromethyl)-1H-imidazol-2-yl)cyclohexyl)methyl)-[2,5'-bipyrimidin]-4-amine], for which the IC50 in the assay with MDA-MB-436 (setting [2]) was determined as 0.7 nM; in assay [1], 3.1 nM.

On to `COc1cnc(-c2c(OC)ncnc2C2CC2)nc1N(C)CC12C3C4C1C1C2C3C41c1nc(C(F)(F)F)cn1C` (stereo not drawn) [Example S51, 4'-cyclopropyl-5,6'-dimethoxy-N-methyl-N-((4-(1-methyl-4-(trifluoromethyl)-1H-imidazol-2-yl)cuban-1-yl)methyl)-[2,5'-bipyrimidin]-4-amine], for which the values for the 50% inhibitory concentration (IC50) (in the assay with MDA-MB-436; in assay [1]) were 5.8 nM and 3.8 nM, respectively.
